Reference: patent US9695222B2, “Ghrelin mimetic polypeptide hapten immunoconjugates having improved solubility and immunogenicity and methods of use thereof” (The Scripps Research Institute, priority 2011, dated 2017)
In brackets after ≈: the same amount, converted by molar mass. Where two headings read alike, the source gives them in different places. Non-standard residues stand in square brackets, D forms with d. Residues, ends and D or L forms follow the SMILES beside them. *: point of attachment. PEG4 = NCCOCCOCCOCCOCCC(=O)O; Octanoyl = CCCCCCCC(=O)*; Butyryl = CCCC(=O)*

Key:
Ser-3-n-octanoyl ghrelin = assay: Competition ELISA of plasma of immunized mice (Kd-app for ghrelin); type: binding; settings: Tables 4A and 4B
Description: Immunization involved five (5) immunizations over ten (10) weeks. Age and weight-matched mice received immunizations (i.p. 0.2 mL) 90 min before the dark cycle on experimental days 0, 14 (2 weeks), 28 (4 weeks), 49 (7 weeks) and 70 (10 weeks). All immunizations used ALUM (Pierce) as the adjuvant, and contained 50 μg of protein (i.e. immunoconjugates of Ghr1, Ghr2, PEG-Ghr4 and PEG-Ghr5 peptides with carrier proteins KLH, TT or CRM197). Tail blood was collected one week post-immunization, centrifuged and plasma analyzed for antibody titers and ghrelin binding affinity.
For competitive ELISA, plates (96-well) were coated overnight at 4° C. with freshly prepared ghrelin-BSA conjugate. The plates were blocked with 4% skim milk, washed and plasma samples were added at appropriate dilutions. The plates were washed and Ser-3-n-octanoyl ghrelin was added to the wells in a concentration series starting at 100 μM. Plates were incubated for 1 h at 37° C., thoroughly washed, and goat anti-mouse-horseradish peroxidase (HRP) conjugate (Pierce) was added. After an incubation period of 1 h at RT, plates were thoroughly washed again and the HRP substrate (TMB substrate kit; Pierce) was added, the reaction was allowed to develop for 15 min and stopped by the addition of 2M H2SO4. The absorbance (450 nm) was read and the values plotted using GraFit (Erithacus Software Ltd). The free antigen concentration at which the absorbance value is 50% of the maximum absorbance was considered the average Kd-app of the plasma for ghrelin.

physchem = settings: water
[1] = not given; remark: listed apart in the source
[2] = Hydrolytic stability of ghrelin haptens in buffered solutions for 7 days; type: physicochemical
Description: To test the hydrolytic stability of the Ghrelin haptens, 1 mg/mL solutions of Ghr1, Ghr4, Ghr5 and the corresponding Ghr4 and Ghr5 haptens comprising the spacer moiety (PEG-Ghr4 and PEG-Ghr5 respectively) were maintained in buffered solutions for 7 days at either 4° C. or 37° C. at pH values of pH5 (in 10 mM citrate buffer), pH6 (in 10 mM maleate buffer) or pH7 (in 10 mM phosphate buffer). FIG. 2 is a graphical representation comparing the percentage of the active acyl form of each Ghrelin hapten present after seven days with the percentage of total hydrolysis and the percentage of total oxidative degradation for each hapten.

SMILES	Affinity of induced anti-ghrelin antibodies (Ser-3-n-octanoyl ghrelin)	Selectivity of induced antibodies for acylated ghrelin over the des-acyl form (Ser-3-n-octanoyl ghrelin)	solubility (physchem; pH 5) [µg/mL]	solubility (physchem; pH 6) [µg/mL]	solubility (physchem; pH 7) [µg/mL]	Solubility of hapten at pH5	further results
CCCC(=O)OC[C@H](NC(=O)[C@H](CO)NC(=O)CN)C(=O)N[C@@H](Cc1ccccc1)C(=O)N[C@@H](CC(C)C)C(=O)N[C@@H](CO)C(=O)N1CCC[C@H]1C(=O)N[C@@H](CCC(=O)O)C(=O)N[C@@H](Cc1c[nH]cn1)C(=O)N[C@@H](CCC(N)=O)C(=O)N[C@@H](CS)C(N)=O [Ghr1]	high affinity anti-ghrelin antibodies in some instances	no particular selectivity	> 1000	> 1000	> 1000		
CC(C)C[C@H](NC(=O)[C@H](CCCCN)NC(=O)[C@H](C)NC(=O)[C@@H]1CCCN1C(=O)[C@@H]1CCCN1C(=O)[C@H](CCCCN)NC(=O)[C@H](CCCCN)NC(=O)[C@H](CO)NC(=O)[C@H](CCC(=O)O)NC(=O)[C@H](CCCCN)NC(=O)[C@H](CCCNC(=N)N)NC(=O)[C@H](CCC(N)=O)NC(=O)[C@H](CCC(N)=O)NC(=O)[C@@H](N)CS)C(=O)N[C@@H](CCC(N)=O)C(=O)N1CCC[C@H]1C(=O)N[C@@H](CCCNC(=N)N)C(N)=O [Ghr2]	high affinity anti-ghrelin antibodies in some instances	no particular selectivity	> 1000	> 1000	> 1000		
CCCC(=O)OC[C@H](NC(=O)[C@H](CO)NC(=O)CN)C(=O)N[C@@H](Cc1ccccc1)C(=O)N[C@@H](CC(C)C)C(=O)N[C@@H](CS)C(N)=O [Ghr4, GSS(butyryl)FLC-NH2] (H-GSS(Butyryl)FLC-NH2)				> 1000	< 100	insoluble	
CCCCCCCC(=O)OC[C@H](NC(=O)[C@H](CO)NC(=O)CN)C(=O)N[C@@H](Cc1ccccc1)C(=O)N[C@@H](CC(C)C)C(=O)N[C@@H](CS)C(N)=O [Ghr5, GSS(octanoyl)FLC-NH2] (H-GSS(Octanoyl)FLC-NH2)						insoluble	Solubility of hapten at pH6 (pH6): insoluble; Solubility of hapten at pH7 (pH7): insoluble
CCCC(=O)OC[C@H](NC(=O)[C@H](CO)NC(=O)CN)C(=O)N[C@@H](Cc1ccccc1)C(=O)N[C@@H](CC(C)C)C(=O)NCCOCCOCCOCCOCCC(=O)N[C@@H](CS)C(N)=O [PEG-Ghr4, GSS(butyryl)FL-PEG4-C-NH2] (H-GSS(Butyryl)FL[PEG4]C-NH2)							solubility ([1]; pH5): > 1000 µg/mL; solubility ([1]; pH6): > 1000 µg/mL; solubility ([1]; pH7): > 1000 µg/mL
CCCCCCCC(=O)OC[C@H](NC(=O)[C@H](CO)NC(=O)CN)C(=O)N[C@@H](Cc1ccccc1)C(=O)N[C@@H](CC(C)C)C(=O)NCCOCCOCCOCCOCCC(=O)N[C@@H](CS)C(N)=O [PEG-Ghr5, GSS(octanoyl)FL-PEG4-C-NH2] (H-GSS(Octanoyl)FL[PEG4]C-NH2)			> 1000	> 1000	~400 (≈ 406 µM)		Hydrolysis relative to Ghr5 without the spacer moiety ([2]; 7 days, FIG. 2): less hydrolysis; Oxidative degradation relative to Ghr5 without the spacer moiety ([2]; 7 days, FIG. 2): significantly reduced oxidative degradation; Hydrolysis compared with native protein (rGhrelin) ([2]; pH 5, 7 days, 4° C.): approximately the same amount of hydrolysis as the native protein; Oxidative degradation compared with Ghr5 hapten ([2]; pH 5, 7 days, 4° C.): significantly less oxidative degradation
